This note sets out measurements from patent US6706740B2, “Fungicidal heterocyclic aromatic amides and their compositions, methods of use and preparation” (Dow AgroSciences LLC, priority 1999, dated 2004).

The structures appear in SMILES notation. Where two headings read alike, the source gives them in different places.

Data set [1] relates to Ustilago maydis (USTIMA). Description: microbe, parasite or virus in culture. To be noted: Mycosarcoma maydis, read-out: USTIMA in vitro Growth Inhibition. It is filed as cell-based.
Data set [2] has as its system Magnaporthe grisea (Pyricularia oryzae—PYRIOR). The data set is described as follows: microbe, parasite or virus in culture. To be noted: Pyricularia oryzae, read-out: PYRIOR in vitro Growth Inhibition. It is filed as cell-based.
Data set [3] deals with Mycosphaerella graminicola (Septoria tritici—SEPTTR). The data set is described as follows: In vitro fungal growth inhibition, Mycosphaerella graminicola (SEPTTR). It is filed as cell-based. To be noted: Zymoseptoria tritici, read-out: SEPTTR in vitro Growth Inhibition.
Data set [4] concerns Phytophthora infestans (PHYTIN). The data set is described as follows: microbe, parasite or virus in culture. To be noted: Phytophthora infestans, read-out: PHYTIN in vitro Growth Inhibition. It is filed as cell-based.
In data set [5] the test system is Leptosphaeria nodorum—LEPTNO. Description: Glume Blotch of Wheat, in vivo whole plant, 24 Hour Protectant. The settings on record: for pest or weed control at 100 ppm: Leptosphaeria, read-out: LEPTNO in vivo 1 Day Protectant.
Data set [6] concerns Erysiphe graminis—ERYSGT. The data set is described as follows: Powdery Mildew of Wheat, in vivo whole plant, 24 Hour Protectant. To be noted: for pest or weed control at 100 ppm: Erysiphe, read-out: ERYSGT in vivo 1 Day Protectant.
Data set [7] deals with Stagonospora nodorum (Leptosphaeria nodorum—LEPTNO). The data set is described as follows: In vitro fungal growth inhibition, Stagonospora nodorum (LEPTNO). It is filed as cell-based. The settings on record: Leptosphaeria, read-out: LEPTNO in vitro Growth Inhibition.
Data set [8] deals with Rhizoctonia solani (RHIZSO). The data set is described as follows: microbe, parasite or virus in culture. It is filed as cell-based. To be noted: Rhizoctonia solani, read-out: RHIZSO in vitro Growth Inhibition.
For data set [9], the system named is Phytophthora infestans—PHYTIN. The data set is described as follows: whole plant or invertebrate. It is filed as in vivo. To be noted: Phytophthora, in Solanum lycopersicum, 24 h, read-out: PHYTIN in vivo 1 Day Protectant.
Data set [10] concerns Puccinia recondita—PUCCRT. Description: Brown Rust of Wheat, in vivo whole plant, 24 Hour Protectant. To be noted: for pest or weed control at 100 ppm: Puccinia, read-out: PUCCRT in vivo 1 Day Protectant.
Data set [11] has as its system Septoria tritici—SEPTTR. Description: Leaf Blotch of Wheat, in vivo whole plant, 24 Hour Protectant.
Setting [12] is: 100 ppm spray, wheat, 24 hour protectant, % control of fungal infection vs untreated plants.
[13] abbreviates: 100 ppm spray, wheat, 24 hour protectant, control of fungal infection vs untreated plants.
[14] abbreviates: Zymoseptoria tritici, 24 h, 100 ppm spray, wheat, 24 hour protectant; control of fungal infection vs untreated plants; read-out: SEPTTR in vivo 1 Day Protectant.
The mark [15] stands for this setting: 100 ppm spray, 24 hour protectant, wheat, control of fungal infection vs untreated plants.
[16] abbreviates: Zymoseptoria tritici, 24 h, 100 ppm spray, 24 hour protectant, wheat; control of fungal infection vs untreated plants; read-out: SEPTTR in vivo 1 Day Protectant.

Usually inhibition stands for the share of the control response that was lost under treatment. The term melting point denotes the temperature of the solid-liquid transition. For `COc1ccnc(C(=O)Nc2ccc(Oc3ccc(C(F)(F)F)cc3)cc2)c1OC(C)=O` [Compound 709], the melting point is 165 to 166 °C. Also, the inhibition at 25 ppm in data set [1] was greater than 80%. Further, the inhibition at 25 ppm in [2] is greater than 80%. In addition, the inhibition at 25 ppm in data set [3] (25 ppm in growth medium) was greater than 80%. Besides, in [4], the inhibition at 25 ppm is less than 80%. In addition, the “LEPTNO in vivo 1 Day Protectant” value in data set [5] (setting [12]) is “+ +”. Also, the “ERYSGT in vivo 1 Day Protectant” value in data set [6] (setting [12]) was “+ +”. The inhibition at 25 ppm in [7] (25 ppm in growth medium) is greater than 80%. For the same compound, the inhibition at 25 ppm in [8] is greater than 80%. Also, the pest or weed control at 100 ppm in data set [9] is less than 25%. Moreover, in data set [10] (setting [12]), the pest or weed control at 100 ppm was less than 25%.

As to `COc1ccnc(C(=O)N[C@H]2COC(=O)[C@H](Cc3ccccc3)[C@@H](OC(=O)C(C)C)[C@H](C)OC2=O)c1OS(C)(=O)=O` [Compound 721], the melting point fell in the range of 189 to 194 °C. Also, the inhibition at 25 ppm in data set [1] is less than 80%. The inhibition at 25 ppm in [2] was less than 80%. Further, the inhibition at 25 ppm in data set [3] (25 ppm in growth medium) was less than 80%. Moreover, the inhibition at 25 ppm in [4] was less than 80%. Further, in data set [5] (setting [12]), the “LEPTNO in vivo 1 Day Protectant” value is reported as “+ +”. The pest or weed control at 100 ppm in [6] (setting [12]) is less than 25%. Also, in data set [7] (25 ppm in growth medium), the inhibition at 25 ppm is greater than 80%. Moreover, in [8], the inhibition at 25 ppm is less than 80%. Besides, the pest or weed control at 100 ppm in [9] is less than 25%. Also, the “PUCCRT in vivo 1 Day Protectant” value in [10] (setting [12]) is recorded as “+ +”.

Consider `COc1ccnc(C(=O)NC2CCN(Cc3cccc(C(F)(F)F)c3)CC2)c1O.O=C(O)/C=C\C(=O)O.O=C(O)/C=C\C(=O)O` [Compound 307], for which the melting point lay within 168 to 170 °C. The inhibition at 25 ppm in [1] was less than 80%. In addition, the inhibition at 25 ppm in [2] was less than 80%. In addition, the inhibition at 25 ppm in [3] is less than 80%. Moreover, the inhibition at 25 ppm in [4] was less than 80%. Further, the pest or weed control at 100 ppm in [5] (24 h) was less than 25%. Further, the pest or weed control at 100 ppm in data set [6] (24 h) is 25 to 74%. In data set [7], the inhibition at 25 ppm was less than 80%. Also, the inhibition at 25 ppm in [8] was less than 80%. Also, the pest or weed control at 100 ppm in [9] was less than 25%. The pest or weed control at 100 ppm in data set [10] (24 h) was less than 25%.

As for `COc1ccnc(C(=O)Nc2ccc(Oc3ccc(C(F)(F)F)cc3)cc2)c1OS(C)(=O)=O` [Compound 723], the melting point was 177 to 180 °C. Moreover, in data set [1], the inhibition at 25 ppm was less than 80%. Also, the inhibition at 25 ppm in [2] was less than 80%. Moreover, the inhibition at 25 ppm in data set [3] (25 ppm in growth medium) is less than 80%. Besides, in [4], the inhibition at 25 ppm is less than 80%. In data set [5] (setting [12]), the pest or weed control at 100 ppm is 25 to 74%. In addition, the pest or weed control at 100 ppm in data set [6] (setting [12]) was less than 25%. The inhibition at 25 ppm in data set [7] (25 ppm in growth medium) is less than 80%. Moreover, in data set [8], the inhibition at 25 ppm was less than 80%. Besides, the pest or weed control at 100 ppm in [9] fell in the range of 25 to 74%. Also, in data set [10] (setting [12]), the pest or weed control at 100 ppm lay in the range of 25 to 74%.

In the case of `O=C(NC1CCCCCCC1)c1ncccc1O` [Compound 203], the melting point was in the range of 63 to 64 °C. In data set [1], the inhibition at 25 ppm is less than 80%. Further, the inhibition at 25 ppm in data set [2] was greater than 80%. For the same compound, the inhibition at 25 ppm in data set [3] (25 ppm in growth medium) was greater than 80%. In data set [4], the inhibition at 25 ppm was less than 80%. In addition, in data set [7] (25 ppm in growth medium), the inhibition at 25 ppm is greater than 80%. In addition, the inhibition at 25 ppm in data set [8] was greater than 80%.

Consider `COc1ccnc(C(=O)N[C@H]2COC(=O)[C@H](Cc3ccccc3)[C@@H](OC(=O)C(C)C)[C@H](C)OC2=O)c1OC(=O)C(C)C` [Compound 602], for which the melting point lay within 160 to 161 °C. For the same compound, the inhibition at 25 ppm in [1] was less than 80%. In addition, the inhibition at 25 ppm in [2] is less than 80%. Besides, in [3] (25 ppm in growth medium), the inhibition at 25 ppm is less than 80%. Besides, the inhibition at 25 ppm in [4] is less than 80%. In [6] (setting [12]), the pest or weed control at 100 ppm is less than 25%. The inhibition at 25 ppm in [7] (25 ppm in growth medium) was greater than 80%. Besides, the inhibition at 25 ppm in [8] is less than 80%. Also, in data set [9], the pest or weed control at 100 ppm was less than 25%.

Turning to `COc1ccnc(C(=O)N[C@@H](CO)C(=O)O[C@@H](C)[C@H](OC(=O)C(C)C)[C@@H](Cc2ccccc2)C(=O)O)c1O` [Compound 341], the inhibition at 25 ppm in [1], in data set [2], in [3] (25 ppm in growth medium), in data set [4], in [7] (25 ppm in growth medium) and in data set [8] was less than 80% each time. For the same compound, the pest or weed control at 100 ppm is less than 25% in data set [5] (setting [13]); 25 to 74% in data set [11] (setting [14]); less than 25% in data set [6] (setting [13]); less than 25% in [9]; less than 25% in [10] (setting [13]).

For the compound `COc1ccnc(C(=O)NC2CC(C)(C)C(=O)C(C)(C)C2)c1O` [Compound 266], the inhibition at 25 ppm in [1], in data set [2], in data set [3] (25 ppm in growth medium), in data set [4], in [7] (25 ppm in growth medium) and in [8] was less than 80% throughout. The pest or weed control at 100 ppm in data set [5] (setting [15]) is 25 to 74%; in data set [11] (setting [16]), 25 to 74%; in [6] (setting [15]), less than 25%; in data set [9], less than 25%; in [10] (setting [15]), less than 25%.

For `COc1ccnc(C(=O)N[C@H]2COC(=O)[C@H](Cc3ccccc3)[C@@H](OC(=O)C(C)C)[C@H](C)OC2=O)c1OS(=O)(=O)c1ccc(C)cc1` [Compound 722], the melting point was in the range of 153 to 155 °C. For the same compound, in data set [1], the inhibition at 25 ppm is less than 80%. In addition, the inhibition at 25 ppm in data set [2] was less than 80%. Besides, the inhibition at 25 ppm in [3] (25 ppm in growth medium) is less than 80%. In data set [4], the inhibition at 25 ppm was less than 80%. Besides, the “LEPTNO in vivo 1 Day Protectant” value in data set [5] (setting [12]) is “+ +”. Moreover, the pest or weed control at 100 ppm in data set [6] (setting [12]) was less than 25%. The inhibition at 25 ppm in data set [7] (25 ppm in growth medium) is less than 80%. Further, the inhibition at 25 ppm in data set [8] was less than 80%. Also, in data set [9], the pest or weed control at 100 ppm was less than 25%. Moreover, the pest or weed control at 100 ppm in data set [10] (setting [12]) was 25 to 74%.

`O=C(NCC1CCCCC1)c1ncccc1O` [Compound 202]: the inhibition at 25 ppm in [1] is less than 80%; in [2], greater than 80%; in [3] (25 ppm in growth medium) it was less than 80%; in [4], greater than 80%; in data set [7] (25 ppm in growth medium) it was less than 80%; in data set [8], less than 80%. For the same compound, the pest or weed control at 100 ppm in data set [5] (setting [15]), in data set [11] (setting [16]), in [6] (setting [15]), in data set [9] and in data set [10] (setting [15]) was less than 25% in each case.

For `COC(=O)C(COC(=O)CCc1ccccc1)NC(=O)c1nccc(OC)c1O` (stereo not drawn) [Compound 344], the inhibition at 25 ppm is less than 80% in data set [1]; less than 80% in [2]; less than 80% in data set [3] (25 ppm in growth medium); less than 80% in data set [4]; greater than 80% in data set [7] (25 ppm in growth medium); less than 80% in [8]. In addition, the pest or weed control at 100 ppm in data set [5] (setting [13]) is 25 to 74%; in data set [11] (setting [14]), 25 to 74%; in data set [6] (setting [13]), less than 25%; in data set [9], less than 25%; in [10] (setting [13]), less than 25%.

On to `COc1ccnc(C(=O)NC2CC(C)(C)CC(C)(C3CC3)C2)c1O` (stereo not drawn) [Compound 252], for which the inhibition at 25 ppm in [1] is less than 80%; in data set [2] it was greater than 80%; in [3] (25 ppm in growth medium), greater than 80%; in data set [4], greater than 80%; in [7] (25 ppm in growth medium), greater than 80%; in data set [8], greater than 80%. Besides, the pest or weed control at 100 ppm in data set [5] (setting [15]) is 25 to 74%; in data set [11] (setting [16]), 25 to 74%; in data set [6] (setting [15]), less than 25%; in [9] it was 25 to 74%; in [10] (setting [15]), 25 to 74%.
